The text below walks through data of US20220280513A1, “ENHANCING THE ANTIVIRAL EFFICACY OF RNA VIRUS INHIBITION BY COMBINATION WITH MODULATORS OF PYRIMIDINE METABOLISM” (The Board of Trustees of the Leland Stanford Junior …, priority 2019, published 2022).

The assay has as its target T1, recombinant human UCK2 (Homo sapiens, UniProt Q9BZX2).
T1 construct: 6xHis (C); made in house; host or cells: E. coli BL21(DE3)
T1 sequence (Q9BZX2 1-261): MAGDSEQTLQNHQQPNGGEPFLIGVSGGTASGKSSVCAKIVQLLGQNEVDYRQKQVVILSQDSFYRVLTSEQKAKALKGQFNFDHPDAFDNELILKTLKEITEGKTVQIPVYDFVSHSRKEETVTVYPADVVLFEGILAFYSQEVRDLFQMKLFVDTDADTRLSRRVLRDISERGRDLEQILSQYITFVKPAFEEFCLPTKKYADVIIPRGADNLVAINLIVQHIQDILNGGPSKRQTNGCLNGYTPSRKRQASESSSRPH
The assay is described as follows: In vitro enzyme activity assay with recombinant human UCK2 (PK/LDH-coupled, UV 340 nm). Type of assay: biochemical. The text has this: In order to guide our SAR studies, we developed an enzymatic assay to evaluate the inhibitory effect of each CPU analog against recombinant human UCK2, which was expressed and purified in E. coli. A continuous assay system was optimized by coupling UCK2 activity to the pyruvate kinase (PK) reaction, which in turn was coupled to lactate dehydrogenase (LDH). Overall reaction progress was continuously monitored by detecting the UV absorption change at 340 nm, which was correlated with the ATP consumption by UCK2. The effect of 250 μM of each CPU analog on UCK2 activity was evaluated in the presence of 50 μM uridine. […] We then individually measured the steady state kinetic parameters of UCK2 using uridine, CPU and 5-F-CPU as substrates. Their KM values were 86, 25, and 41 μM, and their kcat/KM values were 2.6×10^5, 1.5×10^5, and 7.3×10^4 s^−1 M^−1 (FIG. 5B).
Cloning, expression and purification of recombinant human UCK2 and CMPK1: Uridine cytidine kinase 2 (UCK2) was cloned into the pET-21a(+) vector using Ndel and Notl as restriction sites. […] The resulting plasmid was transformed into E. coli BL21(DE3) cells by electroporation, recovered in SOC at 37° C. for 1 h and plated onto LB agar plates with kanamycin overnight at 37° C. A single, isolated colony was inoculated into 30 mL LB supplemented with 50 μg/mL kanamycin and grown at 37° C. with shaking for 15 h. The next day, these cells were used to inoculate 1 L autoclaved LB with 50 μg/mL kanamycin. The flask was shaken at 37° C. When an optical density (OD600) of 0.7 was reached, protein expression was induced with 0.5 mM isopropyl β-D-1-thiogalactopyranoside (IPTG). The temperature was changed to 18° C. and flasks were shaken for an additional 15 h. The cell pellets were collected by spinning the media at 5000 rpm for 10 min. The pellets obtained were frozen by liquid nitrogen and stored in −80° C. for protein purification. Cell pellets were thawed and resuspended in lysis buffer containing Tris (40 mM, pH 7.5), NaCl (10 mM), imidazole (10 mM), DTT (1 mM). Cells were lysed by sonication and centrifuged at 25,000 g for 1 h. The supernatant was incubated with a slurry of Ni-NTA resin for 1 h at 4° C. and loaded onto a column. The nickel column wash buffer was Tris (40 mM, pH 7.5), NaCl (10 mM), DTT (1 mM) and each wash step contained increasing concentrations of imidazole (10, 50, or 250 mM). After SDS-PAGE confirmation of the protein fractions, protein was further purified using fast protein liquid chromatography (FPLC) using buffer A (50 mM Tris-HCl pH 8, 1 mM dithiothreitol (DTT), 10% glycerol) and elution buffer B (50 mM Tris-HCl pH 8, 1mM dithiothreitol (DTT), 10% glycerol with 500 mM NaCl) with changing gradient over a 20 minute from 2% to 100% Buffer B. FPLC eluents containing the protein was concentrated using Am icon centrifugal filter with 3K cut-off and the enzyme was stored in storage buffer (50 mM Tris-HCl pH 7.5, 10% glycerol). Human cytidine monophosphate kinase 1 (CMPK1) was purified as previously described (Deans et al., 2016).
In vitro enzyme activity assays with recombinant human UCK2: To continuously monitor reaction progress spectrophotometrically, ATP hydrolysis was coupled to NADH oxidation via pyruvate kinase (PK) and lactate dehydrogenase (LDH). Reactions were conducted at room temperature in 100 μL in 96-well plates (Greiner Bio-One, UV-Star, Half Area). Mixtures contained 20 mM HEPES (pH 7.2), 100 mM KCl, 2 mM MgCl2, 300 μM ATP, 0-500 μM uridine, 0-500 μM CPU analogs, 10 nM UCK2, 1 mM phosphoenolpyruvate, 500 μM NADH and 20 units/mL of PK and LDH. Progress was monitored in the linear region using a Biotek Synergy HT and kinetic and inhibition constants were determined using GraphPad Prism 7 (GraphPad Software).

As to `O=c1ccn([C@@H]2C=C(CO)[C@@H](O)[C@H]2O)c(=O)[nH]1` [CPU, 1-((1R,4R,5S)-4,5-dihydroxy-3-(hydroxymethyl)cyclopent-2-en-1-yl)pyrimidine-2,4(1H,3H)-dione], the “UCK2 substrate or not (ATP consumption)” value (250 μM analog in the presence of 50 μM uridine) is “substrates of UCK2”. Besides, for the setting “added to assay mixture containing UCK2, uridine (50 μM) and ATP”, the “rate of UMP synthesis” value is “dose-dependent decrease”.
